Tests used:
Type in all cases: in vivo, Glycine max
[1] = tested on: superoxide dismutase (SOD); experiment: SOD activity in soybean leaves
Protocol: (§1) Soybean (Glycine max L. Merr. cv. OAC Bayfield) seeds were surface sterilized in 10% bleach, rinsed several times with distilled water and then germinated and grown in Vermiculite™ (Holiday, Montreal) in a growth chamber under a 16 h/8 h (day/night) regime (natural light supplemented with high pressure sodium lamps to reach the appropriate daylight), at 25±1° C., until they reached vegetative cotyledon (VC) stage (Fehr and Caviness, 1977).
(§2) Treatments of chitin hexamer and thuricin 17 were applied when the seedling reached the first trifoliate stage (˜2 weeks old). Chitin hexamer and thuricin 17 treatments were applied through cut stems, as described by Orozco-Cardenas and Ryan (1999). The plants were excised at the base of the stem with a sharp scalpel and promptly placed in 2 mL Eppendorff™ tubes containing 0.5 mL of 100 μmol L^−1 chitin hexamer [(GlcNAc)6], 0.5 mL of […] thuricin 17, and chitin hexamer+thuricin 17 mixed (1:1) solution in phosphate buffer (15 mM sodium phosphate, pH 6.5). The control plants were treated with phosphate buffer solution alone. […]
The activity of superoxide dismutase (SOD) was determined by measuring its ability to inhibit the photoreduction of nitroblue tetrazolium (NBT) following the method of Giannopolitis and Ries (1977). […] Absorbance was recorded at 560 nm. […]

[2] = tested on: total phenolic compounds; experiment: Total phenolics in soybean leaves (Folin-Ciocalteu)
Protocol: as §1, §2
Total phenolic content was determined by the Folin-Ciocalteu method (Singleton and Rossi, 1965). […] After 3 min, 0.475 mL of 1 mol L^−1 Na2CO3 was added and after 1 h absorbance was measured. […] The total phenolic content was expressed as gallic acid equivalents (GAE) in mg g^−1 fresh weight (FW).

[3] = tested on: phenylalanine ammonia lyase (PAL); experiment: PAL activity in soybean leaves after treatment
Protocol: as §1
as §2, with “alone. Once all the solution was taken up by the plants (4-6 h), they were immediately transferred to glass test tubes containing 20 mL distilled water. The plants were kept under constant white light (85 μmol·m^−2·s^−1).” for “alone.”
(§3) Leaf samples (300 mg fresh weight) were extracted in 4 mL of buffer (50 mM Tris pH 8.5, 14.4 mmol L^−1 2-mercaptoethanol, 1% w/v insoluble polyvinyl-polypyrrorolidone) and centrifuged at 6,000 g for 10 min at 4° C. The total protein concentration in soluble enzyme extracts was determined using the Bradford (1976) assay.
(§4) The method of Beaudoin-Eagan and Thorpe (1985) was used to estimate phenylalanine ammonia lyase (PAL) and tyrosine ammonia lyase (TAL) activities. […] The amounts of trans-cinnamic and p-coumaric acids formed were determined by measuring absorbance at 290 and 330 nm, respectively, against an identical mixture in which D-phenylalanine was substituted for L-phenylalanine and D-tyrosine for L-tyrosine. […]

[4] = tested on: peroxidase (POD); experiment: POD activity in soybean leaves; settings: 72 h after treatment
Protocol: as §1
as §2, with “6.5).” for “6.5). The control plants were treated with phosphate buffer solution alone.”
The activity of peroxidase (POD) was assessed using the method of Chance and Maehly (1955). […] The reaction was started with addition of 20 μL of 40 mM H2O2 and the change in the absorbance at 470 nm was recorded for 1 min. The activity of peroxidase was calculated using an extinction coefficient for the tetraguaiacol of 26.6 mM^−1 cm^−1 at 470 nm. […]

[5] = tested on: tyrosine ammonia lyase (TAL); experiment: TAL activity in soybean leaves after treatment
Protocol: as §1
as §2, with “alone. Once all the solution was taken up by the plants (4-6 h), they were immediately transferred to glass test tubes containing 20 mL distilled water. The plants were kept under constant white light (85 μmol·m^−2·s^−1).” for “alone.”
as §3, §4

[6] = tested on: catalase (CAT); experiment: Catalase activity staining after PAGE; settings: soybean leaves
Protocol: Treatments of chitin hexamer and thuricin 17 were applied when the seedling reached the first trifoliate stage (˜2 weeks old). Chitin hexamer and thuricin 17 treatments were applied through cut stems, as described by Orozco-Cardenas and Ryan (1999). The plants were excised at the base of the stem with a sharp scalpel and promptly placed in 2 mL Eppendorff™ tubes containing 0.5 mL of 100 μmol L^−1 chitin hexamer [(GlcNAc)6], 0.5 mL of […] thuricin 17, and chitin hexamer+thuricin 17 mixed (1:1) solution in phosphate buffer (15 mM sodium phosphate, pH 6.5). The control plants were treated with phosphate buffer solution alone. Once all the solution was taken up by the plants (4-6 h), they were immediately transferred to glass test tubes containing 20 mL distilled water. The plants were kept under constant white light (85 μmol·m^−2·s^−1). Leaves were collected at 12, 24, 36, 48, 60 and 72 h after elicitor treatment, weighed, placed in plastic bags and stored immediately at −80° C.
For the catalase activity (CAT) staining after 12.5% PAGE, the gel was incubated with 3.2 mM H2O2 for 20 min, and a treatment with a solution containing 1% FeCl3 and 1% K3Fe(CN)6 for 10 min, as described by Racchi et al (2001).

induction of SOD activity [1]: not induced
SOD activity increase compared with control ([1]; 48 h after treatment): 24.9%
PAL activity time course ([3]; 12 to 72 h after treatment): increased continuously
PAL activity increase compared with control ([3]; 60 h after treatment): 8.4%
PAL activity greater than the control ([3]; 72 h after treatment): 18.1%
POD activity increase compared with control [4]: 40.3%
TAL activity time course ([5]; 12 to 72 h after treatment): increased continuously
TAL activity increase compared with the control ([5]; 48 h after treatment): 18.8%
TAL activity increase compared with the control ([5]; 72 h after treatment): 23.8%
induction of CAT activity [6]: elicited increases
SMILES: CC(=O)N[C@H]1[C@H](O[C@H]2[C@H](O)[C@@H](NC(C)=O)[C@H](O[C@H]3[C@H](O)[C@@H](NC(C)=O)C(O)O[C@@H]3CO)O[C@@H]2CO)O[C@H](CO)[C@@H](O[C@@H]2O[C@H](CO)[C@@H](O[C@@H]3O[C@H](CO)[C@@H](O[C@@H]4O[C@H](CO)[C@@H](O)[C@H](O)[C@H]4NC(C)=O)[C@H](O)[C@H]3NC(C)=O)[C@H](O)[C@H]2NC(C)=O)[C@@H]1O (stereo partly drawn) [chitin hexamer, chitin hexamer [(GlcNAc)6]]
total phenolics increase compared with the control ([2]; 36 h after treatment): 15.3%
total phenolics increase compared with the control ([2]; 72 h after treatment): 1.4%

Reference: US20080248953A1, “Use of Bacteriocins For Promoting Plant Growth and Disease Resistance” (MCGILL UNIVERSITY, priority 2005, published 2008)
